For orientation: IC50 means the concentration needed to halve the response being measured.

Converted amounts (≈) assume the structure as drawn. “Also recorded” adds a separate entry of the source. Like-named read-outs stand apart in the source and are kept apart here.

The test system of data set [1] is S. aureus. In words: Bioassay of control antibiotics with and without additional Fe3+. The class given is cell-based. The procedure:
(§1) The method was the same as for the antibacterial MIC assays described above, with the following modifications: for excess iron, Fe(NO3)3·9H2O stock (400 mM) was added to give a final concentration of 1.5 or 2.0 mM; for iron depletion, bipy stock (1 M) was added to give a final concentration of 150 μM. For MRSA, 1 was further diluted to 0.5 0.25 and 0.125 μg mL^−1 due to a decrease in MIC under excess iron conditions. The general effect of excess iron on the activity of alternative antibiotics was determined by performing a similar serial dilution of carbenicillin, kanamycin, streptomycin, nitrofurantoin and chloramphenicol in the presence of Fe^3+.

Data set [2] relates to E. coli 25922. The experiment in a line: Spot-on-lawn MIC bioassay. In kind it is cell-based, E. coli ATCC 25922. Conditions: for lowest concentration which gave an inhibition zone: - Fe3+; for MIC: Escherichia coli, 25922, spot-on-lawn. The procedure: (§2) Indicator strains were grown for 16–18 h in LB (5 mL) by inoculation from a single colony. An aliquot of the resulting culture (500 μL) was then used to inoculate LB (50 mL in 250 mL Erlenmeyer flasks), followed by orbital shaking at 250 rpm until they reached an OD600 of 0.3–0.4. These cultures were then diluted 1 : 10 with molten soft nutrient agar (SNA), before pouring into appropriately sized Petri dishes to set. Serial dilutions of the test compounds (from 256 μg mL^−1 to 1 μg mL^−1 plus an additional sample at 1000 μg mL^−1) were prepared in acetonitrile (ACN), and 4 μL of each sample was applied directly onto the SNA surface. Kanamycin (50 μg mL^−1), apramycin (50 μg mL^−1) or aureobasidin A (0.2 μg mL^−1) were used as positive controls, as appropriate, and ACN or water (4 μL) were used as negative controls. […] Experiments were carried out in at least triplicate for each strain.
as §1

The subject of data set [3] is MRSA. In words: Spot-on-lawn MIC bioassay. In kind it is cell-based, Methicillin-resistant Staphylococcus aureus. The following applies: spot-on-lawn; for antibacterial activity (in words): Fig. S13; for MIC: Staphylococcus aureus, MRSA. The method, then:
as §2, §1

Data set [4] deals with T1, EcThrRS (Escherichia coli, UniProt P0A8M3).
T1 construct: His6 (N); made in house; host or cells: E. coli NiCo21(DE3)
The experiment in a line: Aminoacylation assay. In kind it is biochemical, E. coli. Conditions: for IC50 / concentration at which complete inhibition was observed: enzyme 10 nM; for IC50: 10 min preincubation with compound; for fold less potent than 1: ratio of IC50 values. The method, then: (§3) To measure the effects of 1–4 on ThrRS canonical tRNA charging activity, an assay modified from that reported by Ruan et al.[53] was used, where active enzyme was incubated with its necessary substrates and its activity measured using ^14C labeled Thr and a liquid scintillation counter. Purified ThrRS protein (10 nM) was pre-incubated with varying concentrations of compounds 1–4 or ACN for 10 min. After pre-incubation, ThrRS samples were added to a master reaction mixture with the final component concentrations of HEPES (100 mM, pH 7.0), ATP (4 mM), MgCl2 (10 mM), L-[U-^14C]threonine (50 μM, Moravek Inc.), and tRNA^Thr (5 μM). This mixture was incubated at room temperature for 10 min, with samples taken at 1, 2.5, 5, and 10 min. At each time point, a 7 μL aliquot was spotted onto a 5% trichloroacetic acid (TCA) presoaked 3 MM Whatman paper (Cytiva) squares (repeated in triplicate). After allowing the spots to dry, the Whatman paper was washed three times with 5% TCA, and once with 95% EtOH. The Whatman paper was dried and the counts on each square of paper analyzed using a Tri-Carb 2910 TR liquid scintillation counter using Hydrofluor Liquid Scintillation Fluid (National Diagnostics). To calculate IC50 values, fractional initial velocities (velocity of inhibited reaction/velocity in the absence of inhibitor) were plotted against the log of 1 concentration and then fitted to eqn (1), using GraphPad Prism.1 [drawing 1]

Data set [5] relates to B. subtilis. The experiment in a line: Spot-on-lawn MIC bioassay. Conditions: Bacillus subtilis. The class given is cell-based, B. subtilis EC 1524. The procedure: as §2
In data set [6] the test system is E. coli NR698. The experiment in a line: Spot-on-lawn MIC bioassay. Conditions: Escherichia coli. In kind it is cell-based. The procedure:
as §2

Data set [7] has as its target PfThrRS (Pseudomonas fluorescens, UniProt C3JZN7). In words: Aminoacylation assay. The class given is biochemical, P. fluorescens. The following applies: for IC100: read-out: concentration of full inhibition. The method, then: as §3
Data set [8] can be described thus: Hydrolysis of the β-lactone in HEPES buffer monitored by HPLC. In kind it is physicochemical. The following applies: for hydrolysis of β-lactone (in words): pH 8.0, HEPES 100 mM, 30 min, no Fe^3+; for effect of added Fe^3+ on hydrolysis (in words): Fe^3+ 1 mM, HEPES 100 mM, pH 6.0–8.0, 30 min. The method, then:
Hydrolysis of 1–4 was analysed on an Agilent 1290 system fitted with an Agilent LC/MSD MS spectrometer. A Kinetex XB-C18, 100 × 4.6 mm, 5 μM column (Phenomenex) was used with a gradient elution: ACN/0.1% (v/v) FA (H2O) gradient from 5/95 for 0–0.5 min, 5/95 to 98/2 0.5–12 min, 98/2 for 12–13 min, gradient to 5/95 13–13.5 min and 5/95 for 13.5–15 min. The flow rate was 0.6 mL min^−1 and the injection volume of each sample 5 μL. DAD signals were analysed at 270 nm, with a bandwidth of 4 nm. MS were recorded in positive mode using an atmospheric pressure ionisation electrospray (API-ES) ion source with a capillary voltage of 3000 V. The drying gas temperature was 350 °C with a flow rate of 12 L min^−1. The scan parameters were: mass range = 200–1500; fragmentor = 70; gain EMV = 1.0; threshold = 150; step-size = 0.10. Data were analysed with Agilent ChemStation software.
Five solutions of HEPES buffer (111 mM) were prepared at pH 6.0, 6.5, 7.0, 7.5 and 8.0 respectively. A further five solution of HEPES buffer (111 mM) with Fe(NO3)3.9H2O ([…]) were also prepared at pH 6.0, 6.5, 7.0, 7.5, 8.0 respectively. Stock solutions of 1–4 (10 mM) were prepared in DMSO. For each hydrolysis experiment, stock solution of 1–4 (10 μL) was added the HEPES buffer (90 μL) or the HEPES + Fe(NO3)3.9H2O buffer (90 μL), to give final concentrations of HEPES (100 mM), 1–4 (1 mM) and Fe^3+ (0 or 1 mM). The reaction mixtures were shaken using a bench top vortex and left to stand for 30 min, after which the samples were analysed by HPLC using the Analytical HPLC method. All stock solutions of 1–4 were tested at every pH, with and without Fe^3+ and all experiments were repeated in triplicate.

Data set [9] relates to S. cerevisiae. In words: Spot-on-lawn MIC bioassay. In kind it is cell-based, S. cerevisiae NCYC 2939. Conditions: Saccharomyces cerevisiae. The procedure: as §2
Setting [10] is: Figure S9 legend, read-out: Minimum inhibitory concentration.
[11] abbreviates: standard conditions, read-out: MIC.
Setting [12] is: NR698, read-out: Minimum inhibitory concentration.
Setting [13] is: Figure S10 legend, read-out: Minimum inhibitory concentration.
The mark [14] stands for this setting: Figure S8 legend, read-out: Minimum inhibitory concentration.
Where [15] appears, read: Figure S12 legend, read-out: Minimum inhibitory concentration.

T1 sequence (P0A8M3 whole entry): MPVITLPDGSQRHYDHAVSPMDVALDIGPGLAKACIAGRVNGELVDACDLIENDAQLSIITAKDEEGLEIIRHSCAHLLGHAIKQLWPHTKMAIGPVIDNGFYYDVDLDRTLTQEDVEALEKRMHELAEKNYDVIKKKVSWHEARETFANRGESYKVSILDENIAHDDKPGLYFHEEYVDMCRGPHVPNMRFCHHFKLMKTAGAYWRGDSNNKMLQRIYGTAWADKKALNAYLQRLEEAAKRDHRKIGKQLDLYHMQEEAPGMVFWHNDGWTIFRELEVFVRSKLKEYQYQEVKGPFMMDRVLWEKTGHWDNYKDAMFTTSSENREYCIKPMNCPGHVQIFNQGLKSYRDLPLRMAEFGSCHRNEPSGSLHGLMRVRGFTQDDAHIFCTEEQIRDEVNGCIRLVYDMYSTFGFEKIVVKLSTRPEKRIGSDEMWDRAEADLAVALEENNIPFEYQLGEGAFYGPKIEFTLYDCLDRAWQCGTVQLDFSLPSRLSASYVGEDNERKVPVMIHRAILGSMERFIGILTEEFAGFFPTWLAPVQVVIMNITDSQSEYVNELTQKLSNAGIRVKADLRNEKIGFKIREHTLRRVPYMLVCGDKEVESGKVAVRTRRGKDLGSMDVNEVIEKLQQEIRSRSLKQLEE
Chain of PfThrRS (C3JZN7 whole entry): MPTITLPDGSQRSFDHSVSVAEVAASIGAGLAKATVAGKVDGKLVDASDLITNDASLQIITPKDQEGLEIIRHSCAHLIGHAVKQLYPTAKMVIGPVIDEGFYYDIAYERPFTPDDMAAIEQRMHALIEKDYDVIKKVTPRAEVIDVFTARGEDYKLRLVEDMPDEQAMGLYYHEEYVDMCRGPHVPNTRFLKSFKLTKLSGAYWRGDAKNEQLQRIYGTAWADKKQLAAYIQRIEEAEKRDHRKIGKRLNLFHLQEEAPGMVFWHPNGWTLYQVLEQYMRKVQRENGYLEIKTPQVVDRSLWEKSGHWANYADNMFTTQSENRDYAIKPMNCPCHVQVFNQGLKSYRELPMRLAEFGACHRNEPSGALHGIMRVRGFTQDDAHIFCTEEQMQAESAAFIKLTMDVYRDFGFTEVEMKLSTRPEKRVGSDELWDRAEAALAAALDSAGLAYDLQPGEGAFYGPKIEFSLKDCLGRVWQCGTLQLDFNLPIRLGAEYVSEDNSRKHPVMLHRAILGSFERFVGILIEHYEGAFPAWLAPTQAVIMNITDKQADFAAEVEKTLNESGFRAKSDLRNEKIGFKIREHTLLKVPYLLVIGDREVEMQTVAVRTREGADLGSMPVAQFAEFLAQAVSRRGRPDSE

Regarding `NC[C@H]1O[C@H](O[C@H]2[C@H](O)[C@@H](O[C@H]3O[C@H](CO)[C@@H](O)[C@H](N)[C@H]3O)[C@H](N)C[C@@H]2N)[C@H](O)[C@@H](O)[C@@H]1O` [Kanamycin, kanamycin, reference compound], the “lowest concentration which gave an inhibition zone” value in [1] and in data set [2] was 50 µg/mL in each case.
With `O=C(N[C@H](C(=O)O)[C@H](O)Cc1ccc([N+](=O)[O-])cc1)c1ccccc1` [compound 7, β-lactone hydrolysed BA-obafluorin], the “antibacterial activity (in words)” value in [3] was “inactive”.
Regarding `O=C(N[C@H](C(=O)O)[C@H](O)Cc1ccc([N+](=O)[O-])cc1)c1cccc(O)c1O` [compound 5, β-lactone hydrolysed obafluorin], the “antibacterial activity (in words)” value in data set [3] was “inactive”.
With `[H]/N=C(/N)N[C@H]1[C@H](O)[C@@H](O)[C@H](O[C@@H]2O[C@@H](C)[C@](O)(C=O)[C@H]2O[C@@H]2O[C@@H](CO)[C@H](O)[C@@H](O)[C@@H]2NC)[C@@H](N/C(N)=N\[H])[C@@H]1O` [Streptomycin, streptomycin, reference compound], the “lowest concentration which gave an inhibition zone” value in data set [1] and in data set [2] was 50 µg/mL each time.
Take `O=C(N[C@@H]1C(=O)O[C@@H]1Cc1ccc([N+](=O)[O-])cc1)c1ccccc1` [compound 4, BA-obafluorin]: the half-maximal inhibitory concentration (IC50) result is on record as “No inhibition” in data set [4] and “not inhibited; also recorded: No inhibition” in [7] (enzyme 10 nM, 10 min preincubation with compound). In addition, the “inhibition of aminoacylation (in words)” value in data set [4] (up to the highest concentration tested (0–25 μM)) and in data set [7] (up to 25000 nM) was “no significant inhibition” in each case. Further, the MIC in data set [5] (setting [10]), in [5] (setting [11]), in data set [6] (NR698), in data set [6] (setting [12]), in [2] (setting [13]) and in data set [2] (setting [11]) was more than 1000 µg/mL in each case. For the same molecule, the MIC in data set [3] (setting [14]) is more than 1000 µg/mL; in [3] (setting [11]) it was 1000 µg/mL (≈ 3060 µM); in [9] (setting [15]) it was more than 1000 µg/mL; in data set [9] (setting [11]), more than 1000 µg/mL. In data set [8], the “hydrolysis of β-lactone (in words)” value was “no hydrolysis; also recorded: stable to hydrolysis”.
For `O=C1CN(/N=C/c2ccc([N+](=O)[O-])o2)C(=O)N1` [Nitrofurantoin, nitrofurantoin, reference compound], the “lowest concentration which gave an inhibition zone” value in data set [1] and in [2] was 500 µg/mL each time.
Consider `COC(=O)[C@@H](NC(=O)c1cccc(O)c1O)[C@H](O)Cc1ccc([N+](=O)[O-])cc1` [compound 6, β-lactone methanolysed obafluorin], for which the “antibacterial activity (in words)” value in data set [3] was “inactive”.
Take `O=C(N[C@H](CO)[C@H](O)c1ccc([N+](=O)[O-])cc1)C(Cl)Cl` [Chloramphenicol, chloramphenicol, reference compound]: the “lowest concentration which gave an inhibition zone” value in [1] and in [2] was 1000 µg/mL throughout.
For the molecule `O=C(N[C@@H]1C(=O)O[C@@H]1Cc1ccc([N+](=O)[O-])cc1)c1cccc(O)c1` [compound 3, 3-HBA-obafluorin], in data set [4], the “concentration at which complete inhibition was observed” value came out at 5000 nM. Besides, the IC50 in data set [4] (read-out: IC50) was found to be 930 ± 80 nM. Also, the “fold less potent than 1” value in [4] was approximately 30 fold. The MIC in [5] (setting [10]) was 1000 µg/mL (≈ 2920 µM); in data set [5] (setting [11]) it was 1000 µg/mL (≈ 2920 µM); in [6] (NR698), more than 1000 µg/mL; in data set [6] (setting [12]) it was more than 1000 µg/mL; in [2] (setting [13]), more than 1000 µg/mL; in data set [2] (setting [11]) it was more than 1000 µg/mL. The MIC in data set [3] (setting [14]) was 1000 µg/mL (≈ 2920 µM); in [3] (setting [11]), 1000 µg/mL (≈ 2920 µM); in [9] (setting [15]), more than 1000 µg/mL; in data set [9] (setting [11]), more than 1000 µg/mL. In addition, the IC100 in data set [7] (enzyme 10 nM) came out at 5 µM. Also, in [8], the “effect of added Fe^3+ on hydrolysis (in words)” value is listed as “no effect”. Also, in [8], the “hydrolysis of β-lactone (in words)” value is given as “mainly hydrolysed”.
With `CN[C@@H]1[C@@H](O[C@H]2O[C@H](CO)[C@@H](N)[C@H](O)[C@H]2O)OC2C[C@@H](N)[C@@H](O[C@H]3[C@H](O)[C@@H](O)[C@H](N)C[C@@H]3N)OC2[C@@H]1O` (some centres unmarked) [Apramycin, apramycin, reference compound], the “lowest concentration which gave an inhibition zone” value in data set [1] and in data set [2] was 50 µg/mL throughout.
For `CC1(C)S[C@@H]2[C@H](NC(=O)C(C(=O)O)c3ccccc3)C(=O)N2[C@H]1C(=O)O` (some centres unmarked) [Carbenicillin, carbenicillin, reference compound], the “lowest concentration which gave an inhibition zone” value amounted to 50 µg/mL in data set [1] and 1000 µg/mL in data set [2].
Consider `O=C(N[C@@H]1C(=O)O[C@@H]1Cc1ccc([N+](=O)[O-])cc1)c1ccccc1O` [compound 2, 2-HBA-obafluorin], for which the “concentration at which complete inhibition was observed” value in [4] was 10 000 nM. In addition, the IC50 in data set [4] (read-out: IC50) amounted to 3700 ± 700 nM. In data set [4], the “fold less potent than 1” value was “approximately 100 fold”. The MIC is 1000 µg/mL (≈ 2920 µM) in data set [5] (setting [10]); 1000 µg/mL (≈ 2920 µM) in data set [5] (setting [11]); 1000 µg/mL (≈ 2920 µM) in data set [6] (NR698); more than 1000 µg/mL in data set [6] (setting [12]); more than 1000 µg/mL in data set [2] (setting [13]); more than 1000 µg/mL in data set [2] (setting [11]). Besides, the MIC is 1000 µg/mL (≈ 2920 µM) in data set [3] (setting [14]), more than 1000 µg/mL in data set [3] (setting [11]), more than 1000 µg/mL in [9] (setting [15]) and more than 1000 µg/mL in data set [9] (setting [11]). For the same molecule, the IC100 in data set [7] (enzyme 10 nM) turned out to be 10 µM. In [8], the “effect of added Fe^3+ on hydrolysis (in words)” value is listed as “no effect”. In [8], the “hydrolysis of β-lactone (in words)” value was “mainly hydrolysed”.

The values above are taken from publication PMC10619133, “The catechol moiety of obafluorin is essential for antibacterial activity” (RSC Chemical Biology, 2023).
